Active and inactive are the calls of the source. Cut-off read from the data, not from the text of the source, for most assays here: actives have a measured IC50 and inactives only a lower limit.
Key:
[1] = molecular target: T1, Tyrosine-protein phosphatase non-receptor type 7 (Homo sapiens, UniProt P35236); test: SAR analysis of chemical inhibitors of HePTP using a Fluorescent assay - Set 2. [Related pubchem assays (depositor defined):AID1059, AID1077, AID1661, AID2085, AID521]; assay type: functional
T1 sequence (P35236 whole entry): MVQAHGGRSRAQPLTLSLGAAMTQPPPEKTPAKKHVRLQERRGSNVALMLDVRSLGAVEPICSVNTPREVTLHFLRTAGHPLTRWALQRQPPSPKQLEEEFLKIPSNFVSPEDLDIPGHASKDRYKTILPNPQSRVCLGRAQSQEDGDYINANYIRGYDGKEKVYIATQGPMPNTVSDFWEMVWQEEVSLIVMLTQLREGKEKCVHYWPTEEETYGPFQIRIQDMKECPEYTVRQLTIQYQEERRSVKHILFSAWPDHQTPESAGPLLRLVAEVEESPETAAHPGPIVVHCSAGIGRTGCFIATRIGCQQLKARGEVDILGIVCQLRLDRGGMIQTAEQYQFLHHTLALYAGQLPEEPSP

[2] = molecular target: Dual specificity protein phosphatase 3 (Homo sapiens, UniProt P51452); test: SAR VHR1 Fluorescent Assay for In Vitro dose response studies Set 2. [Related pubchem assays (depositor defined):AID1654, AID1661, AID1878]; assay type: functional
[3] = molecular target: T2, Eukaryotic translation initiation factor 2-alpha kinase 3 (Homo sapiens, UniProt Q9NZJ5); test: Dose response cell-based high-throughput screening assay to measure PERK inhibition. [Related pubchem assays: 1416 ]; assay type: functional
T2 sequence (Q9NZJ5 whole entry): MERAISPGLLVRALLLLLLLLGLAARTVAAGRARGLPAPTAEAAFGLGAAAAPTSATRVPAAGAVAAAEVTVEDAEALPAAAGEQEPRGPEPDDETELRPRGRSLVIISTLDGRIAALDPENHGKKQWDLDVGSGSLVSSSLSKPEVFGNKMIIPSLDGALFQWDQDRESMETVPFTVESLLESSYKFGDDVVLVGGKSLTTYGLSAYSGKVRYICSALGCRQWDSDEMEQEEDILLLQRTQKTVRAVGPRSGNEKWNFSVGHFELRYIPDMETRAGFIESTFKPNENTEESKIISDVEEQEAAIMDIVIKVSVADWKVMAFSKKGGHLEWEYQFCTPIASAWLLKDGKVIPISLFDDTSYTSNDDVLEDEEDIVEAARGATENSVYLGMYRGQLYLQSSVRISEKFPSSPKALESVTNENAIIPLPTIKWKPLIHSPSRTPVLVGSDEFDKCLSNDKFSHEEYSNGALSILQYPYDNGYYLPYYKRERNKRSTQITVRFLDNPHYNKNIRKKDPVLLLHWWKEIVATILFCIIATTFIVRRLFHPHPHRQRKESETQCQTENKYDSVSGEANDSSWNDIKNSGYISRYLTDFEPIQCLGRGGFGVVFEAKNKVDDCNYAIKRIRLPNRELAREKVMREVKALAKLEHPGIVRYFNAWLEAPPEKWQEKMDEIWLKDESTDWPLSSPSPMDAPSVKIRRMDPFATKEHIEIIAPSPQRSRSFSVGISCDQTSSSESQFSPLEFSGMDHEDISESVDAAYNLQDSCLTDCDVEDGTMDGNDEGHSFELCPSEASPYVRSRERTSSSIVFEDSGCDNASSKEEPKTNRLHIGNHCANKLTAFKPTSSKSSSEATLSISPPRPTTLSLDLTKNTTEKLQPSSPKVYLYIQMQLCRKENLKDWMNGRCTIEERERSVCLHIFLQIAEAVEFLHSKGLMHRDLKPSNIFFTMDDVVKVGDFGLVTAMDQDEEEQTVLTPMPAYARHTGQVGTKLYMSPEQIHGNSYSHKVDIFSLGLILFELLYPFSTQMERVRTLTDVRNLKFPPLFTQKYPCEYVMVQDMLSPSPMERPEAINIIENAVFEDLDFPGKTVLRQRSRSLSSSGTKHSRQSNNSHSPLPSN

[4] = molecular target: T2, Eukaryotic translation initiation factor 2-alpha kinase 3; test: Counterscreen assay for PERK inhibitors: Dose response cell-based high throughput screening assay to measure inhibition of PERK at 6 hours. [Related pubchem assays: 1522, 1416 ]; assay type: functional
[5] = molecular target: T3, Nucleotide-binding oligomerization domain-containing protein 1 (Homo sapiens, UniProt Q9Y239); test: NOD1 signaling inhibitors, SAR follow-up, revised (AID 2333); assay type: functional
T3 sequence (Q9Y239 whole entry): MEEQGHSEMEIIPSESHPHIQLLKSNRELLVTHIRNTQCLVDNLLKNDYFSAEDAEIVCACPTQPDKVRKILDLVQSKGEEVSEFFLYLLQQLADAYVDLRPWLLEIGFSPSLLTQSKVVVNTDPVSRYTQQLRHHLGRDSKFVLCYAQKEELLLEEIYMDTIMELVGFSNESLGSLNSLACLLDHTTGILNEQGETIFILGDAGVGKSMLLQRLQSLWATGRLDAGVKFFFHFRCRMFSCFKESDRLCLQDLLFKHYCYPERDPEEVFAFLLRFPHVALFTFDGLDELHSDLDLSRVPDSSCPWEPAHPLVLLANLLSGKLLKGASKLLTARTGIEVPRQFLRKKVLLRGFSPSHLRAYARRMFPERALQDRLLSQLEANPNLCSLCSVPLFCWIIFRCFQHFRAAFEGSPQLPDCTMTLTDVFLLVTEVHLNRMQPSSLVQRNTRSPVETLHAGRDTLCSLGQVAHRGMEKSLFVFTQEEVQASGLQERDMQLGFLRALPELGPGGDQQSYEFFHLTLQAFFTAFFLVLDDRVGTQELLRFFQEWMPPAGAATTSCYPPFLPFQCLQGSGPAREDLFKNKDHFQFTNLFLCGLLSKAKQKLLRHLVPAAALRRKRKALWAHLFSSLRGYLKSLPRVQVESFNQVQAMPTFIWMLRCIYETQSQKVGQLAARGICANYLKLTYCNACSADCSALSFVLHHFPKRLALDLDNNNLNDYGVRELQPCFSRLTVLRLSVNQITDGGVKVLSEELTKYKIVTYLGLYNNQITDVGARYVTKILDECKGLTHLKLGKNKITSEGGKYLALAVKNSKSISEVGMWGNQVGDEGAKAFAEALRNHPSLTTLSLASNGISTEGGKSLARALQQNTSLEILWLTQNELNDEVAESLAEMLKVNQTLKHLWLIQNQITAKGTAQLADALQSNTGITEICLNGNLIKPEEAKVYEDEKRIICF

[6] = molecular target: Nucleotide-binding oligomerization domain-containing protein 2 (Homo sapiens, UniProt Q9HC29); test: PubChem AID 2334; assay type: functional
[7] = test system: HEK293; test: cells; settings: Homo sapiens;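 note: cells exposed to compound for 14 hours overnight before viability readout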
[8] = molecular target: Tumor necrosis factor (Homo sapiens, UniProt P01375); test: TNFa-triggered NF-kB activation inhibitors, SAR follow-up, cell-based, revised (AID 2337); assay type: functional
[9] = molecular target: Bcl-2-like protein 10 (Homo sapiens, UniProt Q9HD36); test: displacers of TR3 peptide from Bcl-B, primary screen, selectivity assay for Bfl-1 inhibitor project, biochemical, fluorescence polarization, FITC-TR3 peptide (AID 748);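 note: fluorescence polarization from a fluorescein-labelled TR3 peptide binding purified Bcl-B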
[10] = molecular target: DNA dC->dU-editing enzyme APOBEC-3A (Homo sapiens, UniProt P31941); test: APOBEC3A DNA deaminase inhibitors, dose response, biochemical (AID 504722); assay type: functional
[11] = molecular target: DNA dC->dU-editing enzyme APOBEC-3G (Homo sapiens, UniProt Q9HC16); test: Dose Response confirmation of small molecule APOBEC3G DNA Deaminase Inhibitors via a fluorescence-based single-stranded DNA deaminase assay. [Related pubchem assays (depositor defined):AID493012, AID493028]; assay type: functional
[12] = molecular target: Large T antigen (Simian virus 40, UniProt P03070); assay type: functional, Betapolyomavirus macacae;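 note: Confirmatory-stage PubChem screen for compounds that inhibit SV40 T antigen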
[13] = molecular target: T4, Voltage-gated N-type calcium channel alpha-1B subunit/Amyloid beta A4 precursor protein-binding family A member 1 (Homo sapiens, UniProt Q00975+Q02410); assay type: protein assay
[14] = molecular target: T4, Voltage-gated N-type calcium channel alpha-1B subunit/Amyloid beta A4 precursor protein-binding family A member 1; assay type: protein assay; remark: listed apart in the source
[15] = molecular target: Induced myeloid leukemia cell differentiation protein Mcl-1 (Homo sapiens, UniProt Q07820); assay type: functional
[16] = molecular target: T5, Rac GTPase-activating protein 1 (Homo sapiens, UniProt Q9H0H5); test: MgcRacGAP GTPase-activating activity inhibitors, confirmation, biochemical, ADP Hunter fluorescence, primary and confirmatory (AID 624330); assay type: functional
T5 sequence (Q9H0H5 whole entry): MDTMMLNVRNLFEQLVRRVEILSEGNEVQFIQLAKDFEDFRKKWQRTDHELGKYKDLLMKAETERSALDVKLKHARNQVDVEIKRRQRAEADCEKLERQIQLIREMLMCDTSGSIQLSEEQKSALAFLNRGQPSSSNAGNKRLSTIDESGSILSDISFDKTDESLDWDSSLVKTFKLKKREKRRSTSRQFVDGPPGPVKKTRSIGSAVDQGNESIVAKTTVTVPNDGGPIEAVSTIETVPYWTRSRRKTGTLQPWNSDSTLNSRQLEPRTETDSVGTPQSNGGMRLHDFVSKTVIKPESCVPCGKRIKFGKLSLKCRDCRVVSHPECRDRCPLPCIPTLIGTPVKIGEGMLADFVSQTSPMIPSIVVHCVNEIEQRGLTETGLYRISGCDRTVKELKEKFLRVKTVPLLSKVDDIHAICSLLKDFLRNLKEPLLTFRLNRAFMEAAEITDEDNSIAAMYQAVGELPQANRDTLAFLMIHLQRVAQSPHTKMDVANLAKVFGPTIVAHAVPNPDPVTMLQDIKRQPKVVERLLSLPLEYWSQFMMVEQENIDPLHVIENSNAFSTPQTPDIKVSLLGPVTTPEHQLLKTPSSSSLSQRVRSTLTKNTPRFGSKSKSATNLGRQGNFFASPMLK

[17] = molecular target: Eukaryotic translation initiation factor 4E (Mus musculus, UniProt P63073); test: eIF4E–eIF4G protein interaction inhibitors, dose response, biochemical, TR-FRET (AID 855); assay type: functional;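 note: potency for disrupting eIF4E binding to eIF4GI seen as loss of FRET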
Sequence of Eukaryotic translation initiation factor 4E (P63073 whole entry): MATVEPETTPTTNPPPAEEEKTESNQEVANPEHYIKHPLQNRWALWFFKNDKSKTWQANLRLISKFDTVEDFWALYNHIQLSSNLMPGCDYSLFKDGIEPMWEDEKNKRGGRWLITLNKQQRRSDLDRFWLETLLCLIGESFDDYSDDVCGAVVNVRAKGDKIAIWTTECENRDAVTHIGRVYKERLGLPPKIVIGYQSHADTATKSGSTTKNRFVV

Sequence of Dual specificity protein phosphatase 3 (P51452 whole entry): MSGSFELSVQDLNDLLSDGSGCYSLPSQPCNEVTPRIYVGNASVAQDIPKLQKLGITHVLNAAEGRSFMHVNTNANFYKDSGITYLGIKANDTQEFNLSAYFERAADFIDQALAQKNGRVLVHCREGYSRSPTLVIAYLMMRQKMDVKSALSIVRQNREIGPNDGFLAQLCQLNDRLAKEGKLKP
T4 sequence (Q00975 whole entry): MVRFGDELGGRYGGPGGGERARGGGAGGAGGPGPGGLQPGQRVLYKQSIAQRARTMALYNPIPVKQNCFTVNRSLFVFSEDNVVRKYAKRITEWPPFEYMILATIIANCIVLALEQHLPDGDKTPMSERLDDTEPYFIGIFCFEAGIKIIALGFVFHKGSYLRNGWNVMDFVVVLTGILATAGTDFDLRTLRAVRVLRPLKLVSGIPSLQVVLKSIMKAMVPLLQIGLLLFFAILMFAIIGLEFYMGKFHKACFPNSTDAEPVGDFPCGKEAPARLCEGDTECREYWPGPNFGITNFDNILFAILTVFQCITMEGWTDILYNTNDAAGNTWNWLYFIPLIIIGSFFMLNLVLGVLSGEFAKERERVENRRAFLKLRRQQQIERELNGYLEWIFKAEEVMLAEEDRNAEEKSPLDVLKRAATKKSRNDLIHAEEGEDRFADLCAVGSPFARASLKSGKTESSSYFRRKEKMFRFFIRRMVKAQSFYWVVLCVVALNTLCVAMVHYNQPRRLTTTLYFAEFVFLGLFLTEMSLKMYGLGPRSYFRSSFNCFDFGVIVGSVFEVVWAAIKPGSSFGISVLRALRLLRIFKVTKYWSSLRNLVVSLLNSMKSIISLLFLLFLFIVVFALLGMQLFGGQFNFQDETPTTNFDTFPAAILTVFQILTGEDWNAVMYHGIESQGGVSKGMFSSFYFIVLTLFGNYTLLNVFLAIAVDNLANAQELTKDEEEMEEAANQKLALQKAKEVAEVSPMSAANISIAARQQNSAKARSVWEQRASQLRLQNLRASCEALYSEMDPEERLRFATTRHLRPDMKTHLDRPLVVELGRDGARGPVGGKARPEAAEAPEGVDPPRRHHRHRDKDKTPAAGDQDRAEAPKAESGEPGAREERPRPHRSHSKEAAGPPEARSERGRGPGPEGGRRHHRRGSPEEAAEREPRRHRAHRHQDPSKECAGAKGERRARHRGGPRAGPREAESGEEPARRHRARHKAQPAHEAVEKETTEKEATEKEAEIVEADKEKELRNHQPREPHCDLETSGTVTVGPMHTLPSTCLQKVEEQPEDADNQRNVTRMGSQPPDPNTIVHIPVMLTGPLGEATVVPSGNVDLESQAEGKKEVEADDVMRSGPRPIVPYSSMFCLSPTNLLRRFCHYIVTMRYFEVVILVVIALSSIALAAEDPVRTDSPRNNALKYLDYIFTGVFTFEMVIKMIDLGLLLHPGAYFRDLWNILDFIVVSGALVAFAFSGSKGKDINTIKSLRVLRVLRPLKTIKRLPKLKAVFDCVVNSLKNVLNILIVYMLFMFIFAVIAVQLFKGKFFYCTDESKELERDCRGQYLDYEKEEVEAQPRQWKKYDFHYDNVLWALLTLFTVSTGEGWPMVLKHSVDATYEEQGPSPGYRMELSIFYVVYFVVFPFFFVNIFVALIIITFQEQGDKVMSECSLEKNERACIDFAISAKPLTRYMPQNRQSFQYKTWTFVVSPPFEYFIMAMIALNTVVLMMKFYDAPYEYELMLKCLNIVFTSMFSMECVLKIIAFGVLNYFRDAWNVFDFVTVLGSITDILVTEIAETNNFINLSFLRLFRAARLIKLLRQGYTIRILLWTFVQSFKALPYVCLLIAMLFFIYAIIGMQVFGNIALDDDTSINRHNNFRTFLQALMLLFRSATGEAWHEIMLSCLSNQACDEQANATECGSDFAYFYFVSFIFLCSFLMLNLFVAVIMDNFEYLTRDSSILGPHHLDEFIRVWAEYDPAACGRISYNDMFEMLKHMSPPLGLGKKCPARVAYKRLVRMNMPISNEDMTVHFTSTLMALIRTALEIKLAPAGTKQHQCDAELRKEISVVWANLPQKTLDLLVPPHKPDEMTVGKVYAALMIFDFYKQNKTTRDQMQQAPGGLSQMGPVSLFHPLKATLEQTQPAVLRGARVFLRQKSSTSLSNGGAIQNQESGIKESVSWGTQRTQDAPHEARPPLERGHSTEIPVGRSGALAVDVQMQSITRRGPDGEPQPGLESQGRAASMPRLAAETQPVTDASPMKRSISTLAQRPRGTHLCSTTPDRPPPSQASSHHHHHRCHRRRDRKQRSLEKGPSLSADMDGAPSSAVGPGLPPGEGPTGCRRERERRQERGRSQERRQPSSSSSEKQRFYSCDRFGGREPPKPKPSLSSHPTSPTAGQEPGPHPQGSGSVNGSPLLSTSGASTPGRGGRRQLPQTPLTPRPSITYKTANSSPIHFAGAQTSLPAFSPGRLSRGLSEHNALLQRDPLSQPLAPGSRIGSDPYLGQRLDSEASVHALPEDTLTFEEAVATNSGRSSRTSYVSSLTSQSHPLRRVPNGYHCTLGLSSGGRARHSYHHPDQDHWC
T4 sequence (Q02410 whole entry): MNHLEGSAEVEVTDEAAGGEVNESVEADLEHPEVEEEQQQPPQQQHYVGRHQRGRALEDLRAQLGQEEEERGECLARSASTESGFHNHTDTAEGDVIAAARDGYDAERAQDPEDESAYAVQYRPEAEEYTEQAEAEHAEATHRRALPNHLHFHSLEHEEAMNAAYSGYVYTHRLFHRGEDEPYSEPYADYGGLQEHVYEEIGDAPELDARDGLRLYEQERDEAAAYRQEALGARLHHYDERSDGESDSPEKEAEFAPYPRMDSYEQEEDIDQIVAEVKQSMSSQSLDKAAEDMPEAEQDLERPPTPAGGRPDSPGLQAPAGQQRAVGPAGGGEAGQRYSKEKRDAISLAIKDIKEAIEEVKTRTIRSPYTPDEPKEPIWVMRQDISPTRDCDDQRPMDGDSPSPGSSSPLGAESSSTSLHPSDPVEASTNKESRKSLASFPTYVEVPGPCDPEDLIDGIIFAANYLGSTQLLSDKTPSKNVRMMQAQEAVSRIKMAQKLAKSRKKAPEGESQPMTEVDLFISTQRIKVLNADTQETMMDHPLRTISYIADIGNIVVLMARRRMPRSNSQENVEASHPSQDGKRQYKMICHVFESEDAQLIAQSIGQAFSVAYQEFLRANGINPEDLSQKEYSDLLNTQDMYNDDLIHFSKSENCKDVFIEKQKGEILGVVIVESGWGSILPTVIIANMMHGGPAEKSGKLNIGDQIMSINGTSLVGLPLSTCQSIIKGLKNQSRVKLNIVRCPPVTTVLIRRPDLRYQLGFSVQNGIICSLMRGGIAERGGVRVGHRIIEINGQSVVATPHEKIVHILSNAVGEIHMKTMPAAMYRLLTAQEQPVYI
Sequence of Bcl-2-like protein 10 (Q9HD36 whole entry): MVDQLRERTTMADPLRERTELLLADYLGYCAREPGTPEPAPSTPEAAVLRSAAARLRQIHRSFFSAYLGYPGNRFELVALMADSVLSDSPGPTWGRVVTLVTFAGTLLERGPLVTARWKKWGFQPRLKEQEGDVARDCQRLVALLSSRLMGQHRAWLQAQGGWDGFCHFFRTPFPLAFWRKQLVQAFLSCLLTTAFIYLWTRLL
Sequence of DNA dC->dU-editing enzyme APOBEC-3G (Q9HC16 whole entry): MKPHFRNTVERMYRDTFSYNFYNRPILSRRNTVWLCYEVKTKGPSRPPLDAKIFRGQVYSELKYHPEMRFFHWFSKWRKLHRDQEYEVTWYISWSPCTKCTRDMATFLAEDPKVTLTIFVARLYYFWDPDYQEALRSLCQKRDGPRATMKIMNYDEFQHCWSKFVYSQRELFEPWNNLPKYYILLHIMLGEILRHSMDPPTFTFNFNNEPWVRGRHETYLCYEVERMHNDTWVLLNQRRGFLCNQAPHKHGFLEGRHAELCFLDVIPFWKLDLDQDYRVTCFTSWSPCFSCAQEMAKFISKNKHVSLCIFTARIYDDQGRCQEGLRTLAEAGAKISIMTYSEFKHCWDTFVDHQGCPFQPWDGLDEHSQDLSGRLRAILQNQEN
Sequence of DNA dC->dU-editing enzyme APOBEC-3A (P31941 whole entry): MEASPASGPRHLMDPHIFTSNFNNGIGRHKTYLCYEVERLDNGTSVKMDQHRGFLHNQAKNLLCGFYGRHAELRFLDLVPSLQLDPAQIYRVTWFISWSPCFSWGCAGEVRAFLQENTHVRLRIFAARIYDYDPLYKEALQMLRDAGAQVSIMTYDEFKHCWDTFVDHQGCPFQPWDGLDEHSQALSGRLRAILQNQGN
Sequence of Induced myeloid leukemia cell differentiation protein Mcl-1 (Q07820 whole entry): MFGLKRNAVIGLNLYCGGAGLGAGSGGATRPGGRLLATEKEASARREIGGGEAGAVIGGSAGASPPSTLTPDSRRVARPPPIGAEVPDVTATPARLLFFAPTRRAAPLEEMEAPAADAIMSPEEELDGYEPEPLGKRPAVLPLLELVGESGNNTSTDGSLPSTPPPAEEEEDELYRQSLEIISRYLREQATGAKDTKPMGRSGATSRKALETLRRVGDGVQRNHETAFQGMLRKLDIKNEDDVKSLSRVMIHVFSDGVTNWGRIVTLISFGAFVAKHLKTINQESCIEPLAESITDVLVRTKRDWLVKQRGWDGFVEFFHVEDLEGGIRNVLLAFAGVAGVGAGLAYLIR
Sequence of Tumor necrosis factor (P01375 whole entry): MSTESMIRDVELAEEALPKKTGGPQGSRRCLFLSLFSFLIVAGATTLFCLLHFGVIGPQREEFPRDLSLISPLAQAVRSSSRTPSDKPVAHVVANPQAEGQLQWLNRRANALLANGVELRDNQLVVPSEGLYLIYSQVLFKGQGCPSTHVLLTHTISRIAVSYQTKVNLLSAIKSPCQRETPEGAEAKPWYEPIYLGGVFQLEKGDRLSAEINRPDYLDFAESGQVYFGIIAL

## NS(=O)(=O)c1ccc(NC(=S)N2CCN(c3ccc(Cl)c(Cl)c3)CC2)cc1
[1]
  IC50: > 100 µM (inactive)
[2]
  IC50: > 100 µM (inactive)

## N#Cc1c(NCCO)ccc([N+](=O)[O-])c1NCCO
[3]
  EC50: > 55.7 µM (not active)
[4]
  EC50: > 55.7 µM (not active)

## CC(C)C(=O)Nc1nc2ccccc2n1Cc1ccc(Cl)cc1
[5]
  IC50: 16.7 µM (active)
[6]
  IC50: > 20 µM (inactive)
[7]
  IC50: > 20 µM (inactive)
[8]
  IC50: > 20 µM (inactive)

## c1nnnn1C12CC3CC(CC(C3)C1)C2
[9]
  IC50: > 100 µM (inactive)

## Sc1nnc(-c2ccco2)n1-c1ccc(Br)cc1
[10]
  IC50: > 100 µM (inactive)
[11]
  IC50: 1.5 µM (active)

## COc1ccc(CC(=O)n2[nH]c(=O)ccc2=O)cc1OC
[12]
  IC50: > 100 µM (active)
[13]
  IC50: 46.1 µM (active)
[14]
  IC50: 1.53 µM (active)
[15]
  IC50: 18.2 µM (active)

## Cc1ccc(-n2c(N)c(C(=O)N3CCCCC3)sc2=S)cc1
[1]
  IC50: > 100 µM (inactive)
[2]
  IC50: 76.5 µM (active)

## O=C(C1CCN(Cc2cc(Cl)ccc2O)CC1)N1CCN(Cc2ccccc2)CC1
[16]
  IC50: 81 µM (active)
[17]
  IC50: > 64 µM (inactive)
